Assays:
[1] = biological target: T1, HLA-B*0702 (Homo sapiens, UniProt P01889); test: Measurement of peptide relative affinity to HLA-B*0702 (T2-B7 cells, ME-1 mAb staining); format: binding; details: for RA (Relative Affinity to HLA-B*0702): concentration inducing 20% of HLA-B*0702 expression relative to reference peptide CMV265-274, T2-B7 cells, 16 hours, 37° C.
T1 construct: expressed in transfected cells; host or cells: human T2-B7 cells (T2 transfected with HLA-B*0702)
Description: Measurement of Peptide Relative Affinity to HLA-B*0702.
The protocol used has been described previously (Rohrlich et al., 2003). Briefly, T2-B7 cells were incubated at 37° C. for 16 hours with peptides concentrations ranging from 100 μM to 0.1 μM, and then stained with ME-1 monoclonal antibody (mAb) to quantify the surface expression of HLA-B*0702. For each peptide concentration, the HLA-B*0702 specific staining was calculated as the percentage of staining obtained with 100 μM of the reference peptide CMV265-274 (R10V; RPHERNGFTV, SEQ ID NO: 172). The relative affinity (RA) was determined as: RA=(Concentration of each peptide that induces 20% of HLA-B*0702-expression/Concentration of the reference peptide that induces 20% of HLA-B*0702 expression).

[2] = tested on: T2-B7 targets loaded with peptide; test: CTL induction in vivo in HLA-B*0702 transgenic mice, Cr51 cytotoxic assay; details: for Immunogenicity: X mice developed a specific response for a total of Y mice vaccinated, 100 μg peptide subcutaneously in IFA; for Native peptide cross recognition, MAGE-A A / Native peptide cross recognition, MAGE-A I / Native peptide cross recognition, MAGE-A V: X/Y mice; for Native peptide cross recognition, MAGE-A A: CTL tested against T2-B7 targets loaded with native peptide MAGE-A A; for Native peptide cross recognition, MAGE-A I: CTL tested against T2-B7 targets loaded with native peptide MAGE-A I; for Native peptide cross recognition, MAGE-A V: CTL tested against T2-B7 targets loaded with native peptide MAGE-A V; for Cross recognition of the native peptides by induced CTLs (in words): target cells loaded with native cryptic peptides; for Immunogenicity (in words): vaccinated HLA-B*0702 transgenic mice
Description: The HLA-B7 H-2 class-I knockout mice were previously described (Rohrlich et al., 2003).
CTL Induction In Vivo in HLA-B*0702 Transgenic Mice.
Mice were injected subcutaneously with 100 μg of peptide emulsified in Incomplete Freund's Adjuvant (IFA) in the presence of 150 μg of the I-A^b restricted HBVcore128 T helper epitope (TPPAYRPPNAPIL, SEQ ID NO: 173). After 11 days, 5×10^7 spleen cells were stimulated in vitro with peptide (10 μM). On day 6 of culture, the bulk responder populations were tested for specific cytotoxicity.
Targets were labelled with 100 μCi of Cr^51 for 60 min, plated in 96-well V-bottomed plates (3×10^3 cell/well in 100 μL of RPMI 1640 medium) and, when necessary, pulsed with peptides (1 μM) at 37° C. for 2 hours. Effectors were then added in the wells and incubated at 37° C. for 4 hours. Percentage of specific lysis was determined as: % Lysis=(Experimental Release−Spontaneous Release)/(Maximal Release−Spontaneous Release)×100.

Sequence | Binding to HLA-B*0702 molecules (in words) [1] | RA (Relative Affinity to HLA-B*0702) [1] | Immunogenicity [2] | Native peptide cross recognition, MAGE-A A [2] | Native peptide cross recognition, MAGE-A I [2] | Native peptide cross recognition, MAGE-A V [2] | Cross recognition of the native peptides by induced CTLs (in words) [2] | Immunogenicity (in words) [2]
APRALVETL (MAGE-A A1L9 peptide) | able to bind to MHC | + ((+) 5 < RA < 10) | 6/11 | MAGE-A A (1/8) | MAGE-A I (0/3) | MAGE-A V (0/3) | not able to cross-recognize the native peptides | immunogenic
GPRALIETS (HLA-B7 restricted native peptide) [MAGE-A I] |  | − ((−) means RA > 10) |  |  |  |  |  | 
GPRALVETL (HLA-B7 restricted optimized peptide) [MAGE-A L9] |  |  | 18/18 | MAGE-A A (3/8) | MAGE-A I (3/5) | MAGE-A V (4/5) | able to recognize a target cell loaded with each of the native cryptic peptides | strongly immunogenic
GPRALVETS (HLA-B7 restricted native peptide) [MAGE-A V] |  | − ((−) means RA > 10) |  |  |  |  |  | 
GPRALAETS (HLA-B7 restricted native peptide) [MAGE-A A] |  | − ((−) means RA > 10) |  |  |  |  |  | 

From patent publication US10024868B2, “Identification, optimization and use of shared HLA-B*0702 epitopes for immunotherapy” (Vaxon Biotech, priority 2009, dated 2018)
